Tests used:
Format in all cases: functional
SR = assay: Cytotoxicity against Homo sapiens (human) SR cells assessed as cellular growth at 10^-5 M after 48 hr by SRB assay relative to untreated control
T47D = assay: Cytotoxicity against Homo sapiens (human) T47D cells assessed as cellular growth at 10^-5 M after 48 hr by SRB assay relative to untreated control
PC-3 = assay: Cytotoxicity against Homo sapiens (human) PC3 cells assessed as cellular growth at 10^-5 M after 48 hr by SRB assay relative to untreated control
CCRF-CEM = assay: Cytotoxicity against Homo sapiens (human) CCRF-CEM cells assessed as cellular growth at 10^-5 M after 48 hr by SRB assay relative to untreated control
IGROV-1 = assay: Cytotoxicity against Homo sapiens (human) IGROV1 cells assessed as cellular growth at 10^-5 M after 48 hr by SRB assay relative to untreated control
SF-295 = assay: Cytotoxicity against Homo sapiens (human) SF295 cells assessed as cellular growth at 10^-5 M after 48 hr by SRB assay relative to untreated control
BT-549 = assay: Cytotoxicity against Homo sapiens (human) BT549 cells assessed as cellular growth at 10^-5 M after 48 hr by SRB assay relative to untreated control
HL-60(TB) = assay: Cytotoxicity against Homo sapiens (human) HL-60(TB) cells assessed as cellular growth at 10^-5 M after 48 hr by SRB assay relative to untreated control
RPMI-8226 = assay: Cytotoxicity against Homo sapiens (human) RPMI8226 cells assessed as cellular growth at 10^-5 M after 48 hr by SRB assay relative to untreated control
K562 = assay: Cytotoxicity against Homo sapiens (human) K562 cells assessed as cellular growth at 10^-5 M after 48 hr by SRB assay relative to untreated control
SK-OV-3 = assay: Cytotoxicity against Homo sapiens (human) SKOV3 cells assessed as cellular growth at 10^-5 M after 48 hr by SRB assay relative to untreated control
COLO 205 = assay: Cytotoxicity against Homo sapiens (human) COLO205 cells assessed as cellular growth at 10^-5 M after 48 hr by SRB assay relative to untreated control

COC(=O)[C@]12CCC(C)(C)C[C@H]1C1=CC[C@@H]3[C@@]4(C)CC/C(=N\OC(=O)CCCCCN5C(=O)CSC5=S)C(C)(C)[C@@H]4CC[C@@]3(C)[C@]1(C)CC2 showed an Activity (SR) of 42.83% and an Activity (T47D) of 76.91%.

COC(=O)[C@]12CCC(C)(C)C[C@H]1C1=CC[C@@H]3[C@@]4(C)CCC(=O)C(C)(C)[C@@H]4CC[C@@]3(C)[C@]1(C)CC2 was tested, and the Activity (SR) was 63.87%, the Activity (T47D) was 75.65% and the Activity (PC-3) was 85.25%.

For COC(=O)[C@]12CCC(C)(C)C[C@H]1C1=CC[C@@H]3[C@@]4(C)CC/C(=N\OC(=O)CN5C(=O)CSC5=S)C(C)(C)[C@@H]4CC[C@@]3(C)[C@]1(C)CC2, the Activity (CCRF-CEM) was 56.34%.

COC(=O)[C@]12CCC(C)(C)C[C@H]1C1=CC[C@@H]3[C@@]4(C)CC/C(=N\OC(=O)CCN5C(=O)/C(=C/c6ccc(N(C)C)cc6)SC5=S)C(C)(C)[C@@H]4CC[C@@]3(C)[C@]1(C)CC2 gave an Activity (IGROV-1) of 82.21%.

COC(=O)[C@]12CCC(C)(C)C[C@H]1C1=CC[C@@H]3[C@@]4(C)CC/C(=N\OC(=O)CN5C(=O)/C(=C/c6ccc(OC)cc6)SC5=S)C(C)(C)[C@@H]4CC[C@@]3(C)[C@]1(C)CC2 showed an Activity (SF-295) of 72.97% and an Activity (BT-549) of 67.36%.

Compound CC1(C)CC[C@]2(C(=O)N3CCOCC3)CC[C@]3(C)C(=CC[C@@H]4[C@@]5(C)CC/C(=N\OC(=O)CC6SC(=O)NC6=O)C(C)(C)[C@@H]5CC[C@]43C)[C@@H]2C1 (some centres undefined) has an Activity (HL-60(TB)) of 42.47%, an Activity (RPMI-8226) of 21.46% and an Activity (SR) of 48.74%. For the same compound, the Activity (T47D) was 29.41%.

With CC1(C)CC[C@@]23CC[C@]4(C)[C@@](OC2=O)([C@@H]3C1)[C@@H](Br)C[C@@H]1[C@@]2(C)CC/C(=N\OC(=O)/C=C3/SC(=O)NC3=O)C(C)(C)[C@@H]2CC[C@]14C the Activity (K562) was 27.12%, the Activity (HL-60(TB)) was 26.14% and the Activity (RPMI-8226) was 26.82%. For the same compound, the Activity (SR) was 29.41% and the Activity (T47D) was 24.85%.

With CC1(C)CC[C@@]23CC[C@]4(C)[C@@](OC2=O)([C@@H]3C1)[C@@H](Br)C[C@@H]1[C@@]2(C)CCC(=O)C(C)(C)[C@@H]2CC[C@]14C the Activity (K562) was 78.11%, the Activity (SK-OV-3) was 335.31% and the Activity (COLO 205) was 302.68%. It also gave an Activity (SF-295) of 270.75%.

CC1(C)CC[C@]2(C(=O)O)CC[C@]3(C)C(=CC[C@@H]4[C@@]5(C)CC/C(=N\OC(=O)CC6SC(=O)NC6=O)C(C)(C)[C@@H]5CC[C@]43C)[C@@H]2C1 (some centres undefined) gave an Activity (K562) of 54.55% and an Activity (SR) of 54.18%.

From ChEMBL document CHEMBL3045033, “Synthesis of new potential anticancer agents based on 4-thiazolidinone and oleanane scaffolds” (Med Chem Res, 2012)
